Results reported in paper PMC12136037, “Type II kinase inhibitors that target Parkinson’s disease–associated LRRK2” (Science Advances, 2025).

Key:
Experiment in all cases: DSF 100 kinase selectivity screen;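 further: compound tested at 20 µM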
Type in all cases: binding
[1] = biological target: T1, ~100 representative kinases (Homo sapiens, UniProt Q13627); conditions: Protein DYRK1A; average of three replicates
T1 construct: Recombinant protein kinase domains with a concentration of 2 μM
Procedure, shortened: (§1)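 Each kinase domain, at 2 μM, is mixed with 20 μM test compound and SYPRO Orange in Hepes (20 mM, pH 7.5) with 500 mM NaCl. Temperature is then raised at 3°C/min and fluorescence-monitored unfolding yields the melting temperature change, ΔTm in degrees Celsius.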

[2] = biological target: T2, ~100 representative kinases (Homo sapiens, UniProt P15735); conditions: protein PHKG2; average of three replicates
T2 construct: Recombinant protein kinase domains with a concentration of 2 μM
T2 sequence (P15735 1-406): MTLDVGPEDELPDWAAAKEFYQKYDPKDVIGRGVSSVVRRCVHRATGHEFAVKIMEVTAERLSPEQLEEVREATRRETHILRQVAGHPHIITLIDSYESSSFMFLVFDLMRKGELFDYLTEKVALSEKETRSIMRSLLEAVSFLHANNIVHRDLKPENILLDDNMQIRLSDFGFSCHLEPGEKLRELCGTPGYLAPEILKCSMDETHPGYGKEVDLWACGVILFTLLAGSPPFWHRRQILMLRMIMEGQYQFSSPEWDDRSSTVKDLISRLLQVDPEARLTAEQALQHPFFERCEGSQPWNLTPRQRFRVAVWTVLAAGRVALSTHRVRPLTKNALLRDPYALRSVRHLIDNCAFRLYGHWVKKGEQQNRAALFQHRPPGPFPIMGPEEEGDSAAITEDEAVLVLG
Procedure, shortened: as §1

[3] = biological target: T3, ~100 representative kinases (Homo sapiens, UniProt Q8TF76); conditions: protein GSG2; average of three replicates
T3 construct: Recombinant protein kinase domains with a concentration of 2 μM
T3 sequence (Q8TF76 1-798): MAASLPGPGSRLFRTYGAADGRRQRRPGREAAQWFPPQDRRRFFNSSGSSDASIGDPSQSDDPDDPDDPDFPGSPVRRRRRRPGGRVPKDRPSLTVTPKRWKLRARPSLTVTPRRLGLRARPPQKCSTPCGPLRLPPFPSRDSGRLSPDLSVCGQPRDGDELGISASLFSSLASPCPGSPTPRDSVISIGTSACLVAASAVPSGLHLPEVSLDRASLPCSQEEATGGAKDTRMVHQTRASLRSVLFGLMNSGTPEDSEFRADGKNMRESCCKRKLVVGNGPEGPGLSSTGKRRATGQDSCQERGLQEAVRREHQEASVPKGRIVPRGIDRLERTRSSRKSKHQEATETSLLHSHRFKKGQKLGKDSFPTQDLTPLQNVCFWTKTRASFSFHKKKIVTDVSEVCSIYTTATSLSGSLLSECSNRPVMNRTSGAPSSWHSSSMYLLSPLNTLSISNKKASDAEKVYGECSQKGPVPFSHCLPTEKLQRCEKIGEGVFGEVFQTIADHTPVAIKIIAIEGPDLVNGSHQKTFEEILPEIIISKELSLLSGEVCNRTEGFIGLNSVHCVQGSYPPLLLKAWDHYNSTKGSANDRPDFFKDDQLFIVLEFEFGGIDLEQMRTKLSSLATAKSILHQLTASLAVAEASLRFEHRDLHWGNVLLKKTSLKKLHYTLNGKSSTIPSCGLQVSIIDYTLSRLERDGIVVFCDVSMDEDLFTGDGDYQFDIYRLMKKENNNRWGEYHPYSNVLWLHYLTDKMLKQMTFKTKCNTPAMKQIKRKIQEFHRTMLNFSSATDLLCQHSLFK
Procedure, shortened: as §1

[4] = biological target: T4, ~100 representative kinases (Homo sapiens, UniProt P11309); conditions: protein PIM1; average of three replicates
T4 construct: Recombinant protein kinase domains with a concentration of 2 μM
Procedure, shortened: as §1

[5] = biological target: T5, ~100 representative kinases (Homo sapiens, UniProt Q13873); conditions: Protein BMPR2; average of three replicates
T5 construct: Recombinant protein kinase domains with a concentration of 2 μM
T5 sequence (Q13873 27-1038): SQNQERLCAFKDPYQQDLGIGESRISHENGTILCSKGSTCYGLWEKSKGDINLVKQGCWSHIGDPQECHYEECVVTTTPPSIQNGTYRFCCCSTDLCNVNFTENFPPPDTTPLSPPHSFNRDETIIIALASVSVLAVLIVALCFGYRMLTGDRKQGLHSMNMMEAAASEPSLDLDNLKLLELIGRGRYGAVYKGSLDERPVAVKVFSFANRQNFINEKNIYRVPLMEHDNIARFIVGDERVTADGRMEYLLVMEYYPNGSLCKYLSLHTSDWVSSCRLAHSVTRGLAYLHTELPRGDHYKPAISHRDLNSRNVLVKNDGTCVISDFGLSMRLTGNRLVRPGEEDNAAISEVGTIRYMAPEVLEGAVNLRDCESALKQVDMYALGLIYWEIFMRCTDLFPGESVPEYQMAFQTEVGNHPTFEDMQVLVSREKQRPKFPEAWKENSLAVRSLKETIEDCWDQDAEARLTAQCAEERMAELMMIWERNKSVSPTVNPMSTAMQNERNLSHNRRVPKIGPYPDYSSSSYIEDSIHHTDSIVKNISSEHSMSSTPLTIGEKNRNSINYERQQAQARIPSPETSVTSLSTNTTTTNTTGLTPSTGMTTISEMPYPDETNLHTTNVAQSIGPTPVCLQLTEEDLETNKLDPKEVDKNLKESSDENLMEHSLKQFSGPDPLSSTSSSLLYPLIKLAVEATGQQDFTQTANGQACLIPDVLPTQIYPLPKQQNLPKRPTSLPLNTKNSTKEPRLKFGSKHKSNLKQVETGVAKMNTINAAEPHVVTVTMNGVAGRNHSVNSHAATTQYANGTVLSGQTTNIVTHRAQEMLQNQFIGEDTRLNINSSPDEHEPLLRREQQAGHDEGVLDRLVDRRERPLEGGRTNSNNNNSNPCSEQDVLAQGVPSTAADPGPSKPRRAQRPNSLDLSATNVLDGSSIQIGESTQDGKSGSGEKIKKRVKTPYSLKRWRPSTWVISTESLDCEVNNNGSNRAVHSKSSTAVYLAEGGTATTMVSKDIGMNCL
Procedure, shortened: as §1

T4 sequence (P11309 whole entry, the tested form may be a part): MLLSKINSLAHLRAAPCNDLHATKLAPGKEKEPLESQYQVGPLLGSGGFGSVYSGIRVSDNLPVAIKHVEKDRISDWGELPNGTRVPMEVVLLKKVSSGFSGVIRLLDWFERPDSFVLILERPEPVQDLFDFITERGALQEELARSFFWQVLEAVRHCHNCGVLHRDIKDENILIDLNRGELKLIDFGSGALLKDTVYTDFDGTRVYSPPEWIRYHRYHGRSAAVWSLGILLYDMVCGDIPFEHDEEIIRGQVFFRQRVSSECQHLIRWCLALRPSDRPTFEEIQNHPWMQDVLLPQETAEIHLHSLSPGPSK

Structure (SMILES)	dTm [1] [K]	dTm [2] [K]	dTm [3] [K]	dTm [4] [K]	dTm [5] [K]
O=C(Nc1cc(F)cc(Br)c1)C1(C(=O)Nc2cccc(-c3c[nH]c4ncnc(N5CCOCC5)c34)c2)CC1 [Compound 27]	-0.23	0.85	-3.53	1.64	0.25
CC(C)(C)c1cc(NC(=O)Nc2cccc(-c3c[nH]c4ncnc(N5CCOCC5)c34)c2)n(-c2ccc3ncccc3c2)n1 [Compound 28]	7.41	3.91	-2.39	7.97	0.69
Cc1ccc(-n2nc(C(C)(C)C)cc2NC(=O)Nc2cccc(-c3c[nH]c4ncnc(N5CCOCC5)c34)c2)cc1 [Compound 29]	2.14	2.17	-2.91	3.53	0.97
Cc1ccc(-n2nc(C(C)(C)C)cc2NC(=O)Nc2cccc(-c3c[nH]c4nc(Cl)nc(N5CCOCC5)c34)c2)cc1 [Compound 30]	-4.19	-1.15	-1.55	1.31	0.19
CCSc1nc(NC)c2c(-c3cccc(NC(=O)Nc4cc(C(C)(C)C)nn4-c4ccc(C)cc4)c3)c[nH]c2n1 [Compound 32]	0.57	-0.14	0.63	1.50	0.45
COc1cc2c(Oc3ccc(NC(=O)C4(C(=O)Nc5ccc(F)cc5)CC4)cc3F)ccnc2cc1OCCCN1CCOCC1 [Foretinib, reference compound]	4.04	1.61	1.08	1.41	0.59
C[C@@H]1CN(c2cc(-c3n[nH]c4ccc(OC5(C)CC5)cc34)ncn2)C[C@H](C)O1 [MLi2]	0.53	4.00	0.08	0.81	0.0116
Cn1cc(-c2c[nH]c3ncnc(N4CCOCC4)c23)cc1C#N [PFE-360]	3.25	1.53	2.32	1.04	2.89

Results, then the compound that gave them:

dTm [1] [K]	dTm [2] [K]	dTm [3] [K]	dTm [4] [K]	dTm [5] [K]	Structure (SMILES)
-1.38	-0.72	-3.39	3.25	0.38	CC(=O)N1CCN(c2nc(Cl)nc3[nH]cc(-c4cccc(NC(=O)Nc5cc(C(C)(C)C)nn5-c5ccc(C)cc5)c4)c23)CC1 [Compound 31]
3.71	7.95	-1.75	-0.51	0.63	COc1cc(C(=O)N2CCOCC2)c(F)cc1Nc1nc(N(C)C)c2c(Cl)c[nH]c2n1 [Compound 36]
2.45	3.65	0.32	-0.49	-0.0179	COc1cc(S(C)(=O)=O)ccc1Nc1nc(N(C)C)c2c(Cl)c[nH]c2n1 [Compound 37]
-0.0472	1.11	-0.09	0.44	1.37	CCNc1nc(Nc2cc(F)c(C(=O)N3CCOCC3)cc2OC)ncc1C(F)(F)F [GNE-7915]
